For eleven compounds, MIC results are on record in US10611747B2, “Pyrone based compounds for treating bacterial infections” (FORGE THERAPEUTICS, INC., priority 2015, dated 2020).

Experiment in all cases: Bacterial susceptibility testing (MIC, broth microdilution)
Assay type in all cases: cell-based

One test has as its system E. coli ATCC 25922. Conditions: Escherichia coli. The protocol:
(§1) Minimal inhibitory concentrations (MIC) were determined by the broth microdilution method in accordance with the Clinical and Laboratory Standards Institute (CLSI) guidelines. In brief, organism suspensions were adjusted to a 0.5 McFarland standard to yield a final inoculum between 3×10^5 and 7×10^5 colony-forming units (CFU)/mL. Drug dilutions and inocula were made in sterile, cation adjusted Mueller-Hinton Broth (Beckton Dickinson). An inoculum volume of 100 μL was added to wells containing 100 μL of broth with 2-fold serial dilutions of drug. All inoculated microdilution trays were incubated in ambient air at 35° C. for 18-24 h. […] Performance of the assay was monitored by the use of laboratory quality-control strains and levofloxacin, a compound with a defined MIC spectrum, in accordance with CLSI guidelines.

Test [1] relates to P. aeruginosa 210 delta mexAB-OprM. Conditions: Pseudomonas aeruginosa, read-out: MIC P. aeruginosa 210 delta mexAB-OprM. The protocol: as §1
The test system of another test is E. coli BW25113. Conditions: Escherichia coli, no FBS, 35° C., 18-24 h. The protocol:
as §1

A further test relates to S. aureus ATCC 29213. Conditions: Staphylococcus aureus. On the procedure: as §1
In another test the test system is E. coli imp mutant. Conditions: Escherichia coli, read-out: MIC E. coli imp mutant. On the procedure:
as §1

The next test relates to P. aeruginosa 209. On the procedure: as §1
A further test concerns E. coli delta tolC. Conditions: Escherichia coli, 24 h, read-out: MIC E. coli delta tolC. The protocol: as §1
Where [2] appears, read: ATCC25922, no FBS, broth microdilution, 35° C., 18-24 h, read-out: MIC E. coli ATCC 25922-no FBS.
Setting [3] is: ATCC29213, broth microdilution, 35° C., 18-24 h, read-out: MIC S. aureus ATCC 29213.
Where [4] appears, read: Pseudomonas aeruginosa, 209, broth microdilution, 35° C., 18-24 h, read-out: MIC P. aeruginosa 209.

In brackets after ≈: the same amount, converted by molar mass. Read-outs that look alike come from different tables or passages of the source. Some results are limits rather than exact numbers.

With `CNC(=O)c1ccc(-c2ccc(CCc3oc(CS(C)(=O)=O)cc(=O)c3O)cc2)cc1` [Compound 7, 4′-(2-(3-hydroxy-6-((methylsulfonyl)methyl)-4-oxo-4H-pyran-2-yl)ethyl)-N-methyl-[1,1′-biphenyl]-4-carboxamide], the MIC in the test with E. coli ATCC 25922 (ATCC25922, read-out: MIC E. coli ATCC 25922-no FBS) is over 32 µg/mL; in test [1], over 32 µg/mL; in the test with E. coli BW25113 it was over 32 µg/mL; with S. aureus ATCC 29213 (ATCC29213, read-out: MIC S. aureus ATCC 29213), over 32 µg/mL; with E. coli imp mutant, over 32 µg/mL; in the test on P. aeruginosa 209 (Pseudomonas aeruginosa, 209, read-out: MIC P. aeruginosa 209), over 32 µg/mL. Moreover, in the test with E. coli delta tolC, the MIC is over 32 µg/mL.

Regarding `O=C(c1ccc(C#CC#Cc2ccc(NCc3occc(=O)c3O)cc2)cc1)N1CCCCC1` [Compound 33], the MIC is 8 to 32 µg/mL (≈ 17.7 to 70.7 µM) with E. coli ATCC 25922 (setting [2]); over 32 µg/mL in test [1]; 1 to 8 µg/mL (≈ 2.21 to 17.7 µM) with E. coli BW25113; over 32 µg/mL in the test with S. aureus ATCC 29213 (setting [3]); 1 to 8 µg/mL (≈ 2.21 to 17.7 µM) in the test on E. coli imp mutant; over 32 µg/mL with P. aeruginosa 209 (setting [4]). The MIC with E. coli delta tolC was under 1 µg/mL.

For `O=C(NC1CC1)c1ccc(C#CC#Cc2ccc(NCc3occc(=O)c3O)cc2)cc1` [Compound 34], the MIC with E. coli ATCC 25922 (setting [2]) is 1 to 8 µg/mL (≈ 2.36 to 18.8 µM); in test [1], over 32 µg/mL; with E. coli BW25113 it was 1 to 8 µg/mL (≈ 2.36 to 18.8 µM); in the test on S. aureus ATCC 29213 (setting [3]) it was over 32 µg/mL; with E. coli imp mutant, 1 to 8 µg/mL (≈ 2.36 to 18.8 µM); in the test on P. aeruginosa 209 (setting [4]), over 32 µg/mL. Further, in the test with E. coli delta tolC, the MIC is under 1 µg/mL.

Consider `O=C(c1ccc(C#CC#Cc2ccc(NCc3occc(=O)c3O)cc2)cc1)N1CCNCC1` [Compound 48], for which the MIC is 1 to 8 µg/mL (≈ 2.21 to 17.6 µM) in the test on E. coli ATCC 25922 (setting [2]); 8 to 32 µg/mL (≈ 17.6 to 70.6 µM) in test [1]; 1 to 8 µg/mL (≈ 2.21 to 17.6 µM) with E. coli BW25113; over 32 µg/mL with S. aureus ATCC 29213 (setting [3]); 1 to 8 µg/mL (≈ 2.21 to 17.6 µM) with E. coli imp mutant; over 32 µg/mL in the test on P. aeruginosa 209 (setting [4]). In addition, the MIC in the test on E. coli delta tolC was under 1 µg/mL.

Turning to `O=C(NCc1cc(=O)c(O)co1)c1ccc(C#Cc2ccccc2)cc1` [Compound 27], the MIC (with E. coli ATCC 25922 (setting [2]); in test [1]; with E. coli BW25113; in the test with S. aureus ATCC 29213 (setting [3]); with E. coli imp mutant; with P. aeruginosa 209 (setting [4])) was over 32 µg/mL in each case. The MIC in the test on E. coli delta tolC is over 32 µg/mL.

For the compound `N[C@@H]1CN(C(=O)c2ccc(C#CC#Cc3ccc(NCc4occc(=O)c4O)cc3)cc2)CC12CC2` [Compound 49], the MIC with E. coli ATCC 25922 (setting [2]) was 1 to 8 µg/mL (≈ 2.09 to 16.7 µM); in test [1] it was over 32 µg/mL; in the test with E. coli BW25113, 1 to 8 µg/mL (≈ 2.09 to 16.7 µM); in the test with S. aureus ATCC 29213 (setting [3]), over 32 µg/mL; in the test with E. coli imp mutant, 1 to 8 µg/mL (≈ 2.09 to 16.7 µM); in the test on P. aeruginosa 209 (setting [4]), over 32 µg/mL. For the same compound, the MIC in the test with E. coli delta tolC was under 1 µg/mL.

For `CN1CC2CN(C(=O)c3ccc(C#CC#Cc4ccc(NCc5occc(=O)c5O)cc4)cc3)C[C@@H]2C1` (some centres unmarked) [Compound 42], the MIC in the test with E. coli ATCC 25922 (setting [2]) was 1 to 8 µg/mL (≈ 2.03 to 16.2 µM); in test [1] it was 8 to 32 µg/mL (≈ 16.2 to 64.8 µM); against E. coli BW25113 it was 1 to 8 µg/mL (≈ 2.03 to 16.2 µM); in the test on S. aureus ATCC 29213 (setting [3]), over 32 µg/mL; in the test with E. coli imp mutant, 1 to 8 µg/mL (≈ 2.03 to 16.2 µM); with P. aeruginosa 209 (setting [4]), over 32 µg/mL. Also, in the test with E. coli delta tolC, the MIC was under 1 µg/mL.

As to `COC(=O)c1ccc(C#CC#Cc2ccc(NCc3occc(=O)c3O)cc2)cc1` [Compound 31], the MIC (in the test with E. coli ATCC 25922 (setting [2]); in test [1]; against E. coli BW25113; with S. aureus ATCC 29213 (setting [3]); in the test with E. coli imp mutant; with P. aeruginosa 209 (setting [4])) was over 32 µg/mL throughout. The MIC with E. coli delta tolC lay in the range of 1 to 8 µg/mL (≈ 2.5 to 20 µM).

Consider `O=c1ccoc(CNc2ccc(C#Cc3ccc(CN4CCOCC4)cc3)cc2)c1O` [Compound 55], for which the MIC in the test with E. coli ATCC 25922 (setting [2]) was 1 to 8 µg/mL (≈ 2.4 to 19.2 µM); in test [1], 8 to 32 µg/mL (≈ 19.2 to 76.8 µM); against E. coli BW25113, 1 to 8 µg/mL (≈ 2.4 to 19.2 µM); with S. aureus ATCC 29213 (setting [3]), over 32 µg/mL; in the test with E. coli imp mutant, 1 to 8 µg/mL (≈ 2.4 to 19.2 µM); in the test on P. aeruginosa 209 (setting [4]), over 32 µg/mL. Moreover, the MIC in the test on E. coli delta tolC is 1 to 8 µg/mL (≈ 2.4 to 19.2 µM).

Consider `CS(=O)(=O)Cc1cc(=O)c(O)c(CNc2ccc(C#Cc3ccccc3)cc2)o1` [Compound 2, 2-((4-(2-phenylethynyl)phenylamino)methyl)-3-hydroxy-6-((methylsulfonyl)methyl)-4H-pyran-4-one], for which the MIC (in the test with E. coli ATCC 25922 (setting [2]); in test [1]; against E. coli BW25113; in the test on S. aureus ATCC 29213 (setting [3]); with E. coli imp mutant; in the test with P. aeruginosa 209 (setting [4])) was over 32 µg/mL each time. Also, the MIC with E. coli delta tolC was in the range of 8 to 32 µg/mL (≈ 19.5 to 78.2 µM).

Take `CN(C)[C@@H]1CCN(C(=O)c2ccc(C#CC#Cc3ccc(NCc4occc(=O)c4O)cc3)cc2)C1` [Compound 37]: the MIC with E. coli ATCC 25922 (setting [2]) is 1 to 8 µg/mL (≈ 2.08 to 16.6 µM); in test [1] it was over 32 µg/mL; with E. coli BW25113, 1 to 8 µg/mL (≈ 2.08 to 16.6 µM); with S. aureus ATCC 29213 (setting [3]), over 32 µg/mL; in the test on E. coli imp mutant, 1 to 8 µg/mL (≈ 2.08 to 16.6 µM); in the test on P. aeruginosa 209 (setting [4]), over 32 µg/mL. In addition, in the test on E. coli delta tolC, the MIC is under 1 µg/mL.
